Source: patent US11104670B2, “4-pyrimidin-5-ylmethyl-morpholine derivatives and the use thereof as medicament” (Boehringer Ingelheim International GmbH, priority 2018, dated 2021)

Target: Nav1.6 channel (Homo sapiens (Human), UniProt Q9UQD0)
Experiment: Nav1.6 inhibition, IonWorks Quattro electrophysiology
Type: cell-based
Details: 1 μM; normalized to vehicle (0%) and maximal inhibition control (100%)
Experimental: Ion Works Quattro electrophysiological platform
The compounds were prepared in DMSO at 300× the final assay concentrations of 1 and 5 μM.
The 300× DMSO stock solutions were transferred into assay plates where 2 μl per well of each 300× stock solution were placed. All assay plates were stored at −80° C. until the day of assay.
On the day of the assay, the appropriate assay plate was thawed at room temperature, centrifuged, and 198 μl of external recording solution was added and mixed thoroughly. This provided a 1:100 dilution. A further 1:3 dilution occurred upon addition to the cells in the IonWorks Quattro electrophysiological platform, giving a 1:300 dilution in total.
On each assay plate, at least 8 wells were reserved for vehicle control (0.3% DMSO) and at least 8 wells for each positive control specific to the cell line tested. The positive controls were tested at a maximal blocking and an approximate IC50 concentration. As positive control Lidocaine at concentrations of 30 and 1000 μM was used.
Amphotericin B was used to obtain electrical access to the cell interior at a final concentration of 200 μg/ml in internal recording solution.
State-dependent inhibition: Sodium channels when held at depolarized potential or long test pulse, the channels open and inactivate and then stay inactivated until the membrane potential is stepped back to hyperpolarized potentials, when the inactivated channels recover from inactivation into closed state.
Cells were held at −120 mV. In order to completely inactivate the sodium channels (pulse 1), the cells were pulsed to +0 mV for 2500 ms and stepped back to −120 mV for 10 ms (to completely recover from inactivation, however channels that had drugs bound to them will not recover from inactivation) before stepping to +0 mV for 20 ms (pulse 2).
Both the positive and vehicle control data associated with each cell line assayed are shown below as an example. The mean is shown for each positive and negative control as solid symbol with the total number of individual well replicates given next to the solid symbol. In addition, the individual data of each well are shown on the graph as open symbols so that the variation about the mean value can be readily assessed.
In FIG. 2, a Post/Pre value of 1.0 corresponds to 0% inhibition, a Post/Pre value of 0.0 corresponds to 100% inhibition.
Tables 3 and 4 show the normalized percentage inhibition of Nav1.6 channel. […] (see also the figure Assay Control Results above).

Nav1.6 channel, sequence (Q9UQD0 whole entry): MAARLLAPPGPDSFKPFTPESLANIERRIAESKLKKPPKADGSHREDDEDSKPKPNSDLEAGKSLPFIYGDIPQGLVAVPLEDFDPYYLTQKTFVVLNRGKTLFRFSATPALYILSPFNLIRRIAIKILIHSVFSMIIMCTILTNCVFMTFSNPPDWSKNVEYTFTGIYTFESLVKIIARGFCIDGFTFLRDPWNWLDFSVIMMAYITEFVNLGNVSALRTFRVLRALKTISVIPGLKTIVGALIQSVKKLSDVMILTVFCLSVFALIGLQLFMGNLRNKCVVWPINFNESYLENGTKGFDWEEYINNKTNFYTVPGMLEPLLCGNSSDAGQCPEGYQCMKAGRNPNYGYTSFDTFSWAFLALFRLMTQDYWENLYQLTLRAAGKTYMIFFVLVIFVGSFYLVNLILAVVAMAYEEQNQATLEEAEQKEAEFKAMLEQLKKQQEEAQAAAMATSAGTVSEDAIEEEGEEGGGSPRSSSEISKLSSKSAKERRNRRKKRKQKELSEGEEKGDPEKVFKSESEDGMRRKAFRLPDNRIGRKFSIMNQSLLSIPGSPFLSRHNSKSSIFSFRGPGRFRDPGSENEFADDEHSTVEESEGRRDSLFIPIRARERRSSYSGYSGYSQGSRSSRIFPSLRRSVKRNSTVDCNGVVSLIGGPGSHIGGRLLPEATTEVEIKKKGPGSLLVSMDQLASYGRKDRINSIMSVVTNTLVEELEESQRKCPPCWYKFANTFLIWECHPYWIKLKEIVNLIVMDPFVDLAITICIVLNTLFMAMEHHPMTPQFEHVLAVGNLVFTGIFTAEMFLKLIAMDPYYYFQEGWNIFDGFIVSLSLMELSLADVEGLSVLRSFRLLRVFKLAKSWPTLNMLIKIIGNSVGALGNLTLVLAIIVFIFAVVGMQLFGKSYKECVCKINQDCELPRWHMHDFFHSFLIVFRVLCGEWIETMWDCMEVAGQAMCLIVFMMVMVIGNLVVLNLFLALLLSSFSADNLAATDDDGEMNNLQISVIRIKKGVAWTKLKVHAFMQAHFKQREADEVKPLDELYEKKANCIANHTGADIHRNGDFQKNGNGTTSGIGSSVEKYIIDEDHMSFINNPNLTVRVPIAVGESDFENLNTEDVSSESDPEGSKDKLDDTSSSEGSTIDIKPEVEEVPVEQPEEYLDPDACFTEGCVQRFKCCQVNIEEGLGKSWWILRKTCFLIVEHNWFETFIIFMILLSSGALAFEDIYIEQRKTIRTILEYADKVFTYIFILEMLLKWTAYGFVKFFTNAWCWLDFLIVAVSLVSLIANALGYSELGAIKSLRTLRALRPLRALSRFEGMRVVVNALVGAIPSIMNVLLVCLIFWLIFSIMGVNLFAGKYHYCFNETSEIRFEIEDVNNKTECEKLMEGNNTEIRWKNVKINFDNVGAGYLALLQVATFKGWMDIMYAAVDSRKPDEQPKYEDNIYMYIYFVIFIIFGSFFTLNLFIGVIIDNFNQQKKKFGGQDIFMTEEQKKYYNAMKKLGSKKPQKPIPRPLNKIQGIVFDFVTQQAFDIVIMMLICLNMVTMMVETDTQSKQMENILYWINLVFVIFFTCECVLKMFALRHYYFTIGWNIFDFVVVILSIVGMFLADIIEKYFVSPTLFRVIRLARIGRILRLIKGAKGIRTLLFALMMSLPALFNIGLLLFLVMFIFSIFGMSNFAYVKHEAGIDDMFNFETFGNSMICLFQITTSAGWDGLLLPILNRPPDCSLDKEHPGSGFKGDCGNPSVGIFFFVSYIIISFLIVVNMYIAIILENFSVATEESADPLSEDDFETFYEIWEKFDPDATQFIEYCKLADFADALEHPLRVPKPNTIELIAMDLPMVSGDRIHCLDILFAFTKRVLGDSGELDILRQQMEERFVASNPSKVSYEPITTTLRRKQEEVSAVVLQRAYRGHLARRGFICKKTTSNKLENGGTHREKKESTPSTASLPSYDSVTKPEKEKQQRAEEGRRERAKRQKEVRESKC

Compound	inhibition at 1 µM [%]
CNC(=O)[C@@H]1CN(Cc2cnc(Oc3ccc(F)cc3)nc2)CCO1 [Example 32]	-7.7
CNC(=O)[C@@H]1CN(Cc2cnc(Oc3ccccc3F)nc2)CCO1 [Example 27]	-3.1
CNC(=O)[C@@H]1CN(Cc2cnc(Oc3ccc(C)cc3C)nc2)CCO1 [Example 22]	3.8
CNC(=O)[C@@H]1CN(Cc2cnc(Oc3ccccc3Cl)nc2)CCO1 [Example 26]	12.8
CNC(=O)[C@@H]1CN(Cc2cnc(Oc3ccc(C)cc3F)nc2)CCO1 [Example 20]	-8.9
CNC(=O)[C@@H]1CN(Cc2cnc(Oc3ccc(Cl)cc3F)nc2)CCO1 [Example 24]	5.8
CNC(=O)[C@@H]1CN(Cc2cnc(Oc3ccc(F)cc3C)nc2)CCO1 [Example 21]	1.3
CNC(=O)[C@@H]1CN(Cc2cnc(Oc3ccc(C)cc3)nc2)CCO1 [Example 28]	-6.2
CNC(=O)[C@@H]1CN(Cc2cnc(Oc3ccc(Cl)cc3)nc2)CCO1 [Example 25]	-11.8
CNC(=O)[C@@H]1CN(Cc2cnc(Oc3ccc(F)cc3F)nc2)CCO1 [Example 23]	0.1

Same assay, conditions: 5 μM; normalized to vehicle (0%) and maximal inhibition control (100%)

Compound	inhibition at 5 µM [%]
CNC(=O)[C@@H]1CN(Cc2cnc(Oc3ccc(F)cc3)nc2)CCO1 [Example 32]	-13.5
CNC(=O)[C@@H]1CN(Cc2cnc(Oc3ccccc3F)nc2)CCO1 [Example 27]	4.3
CNC(=O)[C@@H]1CN(Cc2cnc(Oc3ccc(C)cc3C)nc2)CCO1 [Example 22]	-10.4
CNC(=O)[C@@H]1CN(Cc2cnc(Oc3ccccc3Cl)nc2)CCO1 [Example 26]	5.7
CNC(=O)[C@@H]1CN(Cc2cnc(Oc3ccc(C)cc3F)nc2)CCO1 [Example 20]	-10.1
CNC(=O)[C@@H]1CN(Cc2cnc(Oc3ccc(Cl)cc3F)nc2)CCO1 [Example 24]	-3.7
CNC(=O)[C@@H]1CN(Cc2cnc(Oc3ccc(F)cc3C)nc2)CCO1 [Example 21]	3.6
CNC(=O)[C@@H]1CN(Cc2cnc(Oc3ccc(C)cc3)nc2)CCO1 [Example 28]	-14.6
CNC(=O)[C@@H]1CN(Cc2cnc(Oc3ccc(Cl)cc3)nc2)CCO1 [Example 25]	-18.8
CNC(=O)[C@@H]1CN(Cc2cnc(Oc3ccc(F)cc3F)nc2)CCO1 [Example 23]	2.9

Same assay, conditions: at 5 μM

Compound	inhibition of the Nav 1.6 channel (in words)
CNC(=O)[C@@H]1CN(Cc2cnc(Oc3ccc(Cl)cc3)nc2)CCO1 [Example 25]	not showing any significant inhibition

Target: MDR1 (P-gp) (Homo sapiens (Human), UniProt P08183)
Experiment: MDCK assay P-gp (MDCK-MDR1 monolayer permeability)
Type: in vitro ADME
Details: MDCK-MDR1, apical-to-basal, pH 7.4
Experimental: The MDCK assays provide information on the potential of a compound to pass the blood brain barrier. Permeability measurements across polarized, confluent MDCK-MDR1 cell monolayers grown on permeable filter supports are used as an in vitro absorption model: apparent permeability coefficients (PE) of the compounds across the MDCK-MDR1 cell monolayers are measured (pH 7.4, 37° C.) in apical-to-basal (AB) and basal-to-apical (BA) transport direction. The AB permeability (PEAB) represents drug absorption from the blood into the brain and the BA permeability (PEBA) drug efflux from the brain back into the blood via both, passive permeability as well as active transport mechanisms mediated by efflux and uptake transporters that are expressed on the MDCK-MDR1 cells, predominantly by the overexpressed human MDR1. Identical or similar permeabilities in both transport directions indicate passive permeation (PEBA/PEAB≤1), vectorial permeability points to additional active transport mechanisms. Higher PEBA than PEAB (PEBA/PEAB>5) indicates the involvement of active efflux mediated by MDR1, which might compromise the goal to achieve sufficient brain exposure. Therefore, this assay provides valuable support for selection of compounds applicable for further in vivo testing. High permeability not limited by efflux at the blood brain barrier is a favourable characteristic for compounds that are to be used for drugs acting primarily in the CNS.
Apparent permeability coefficients (Papp) of the compounds across the MDCK-MDR1 monolayers (MDCKII cells transfected with human MDR1 cDNA expression plasmid) are measured in apical-to-basal (AB) and basal-to-apical (BA) direction.
MDCK-MDR1 cells (6×10^5 cells/cm^2) are seeded on filter inserts (Corning, Transwell, polycarbonate, 0.4 μm pore size) and cultured for 9 to 10 days. Compounds dissolved in DMSO stock solution (1-20 mM) are diluted with HTP-4 aqueous buffer (128.13 mM NaCl, 5.36 mM KCl, 1 mM MgSO4, 1.8 mM CaCl2, 4.17 mM NaHCO3, 1.19 mM Na2HPO4, 0.41 mM NaH2PO4, 15 mM HEPES, 20 mM glucose, pH 7.4) supplemented with 0.25% BSA to prepare the transport solutions (final concentration: 1 or 10 μM, final DMSO <=0.5%). The transport solution is applied to the apical or basolateral donor side for measuring A-B or B-A permeability, respectively. The receiver side contains HTP-4 buffer supplemented with 0.25% BSA. Samples are collected at the start and end of experiment from the donor and at various time intervals for up to 2 hours also from the receiver side for concentration measurement by HPLC-MS/MS (RapidFire High-throughput MS System (Agilent) coupled to QTrap 6500 (AB Sciex) or TSQ Vantage (Thermo Scientific)). Sampled receiver volumes are replaced with fresh receiver solution. Efflux ratio is calculated dividing the Papp (b-a) values by the Papp (a-b) values.

Compound	Papp A→B [×10⁻⁶ cm/s]
CNC(=O)[C@@H]1CN(Cc2cnc(Oc3ccc(F)cc3)nc2)CCO1 [Example 32]	82
CNC(=O)[C@@H]1CN(Cc2cnc(Oc3ccccc3F)nc2)CCO1 [Example 27]	54
CNC(=O)[C@@H]1CN(Cc2cnc(Oc3ccc(C)cc3C)nc2)CCO1 [Example 22]	57
CNC(=O)[C@@H]1CN(Cc2cnc(Oc3ccccc3Cl)nc2)CCO1 [Example 26]	95
CNC(=O)[C@@H]1CN(Cc2cnc(Oc3ccc(C)cc3F)nc2)CCO1 [Example 20]	80
CNC(=O)[C@@H]1CN(Cc2cnc(Oc3ccc(Cl)cc3F)nc2)CCO1 [Example 24]	56
CNC(=O)[C@@H]1CN(Cc2cnc(Oc3ccc(F)cc3C)nc2)CCO1 [Example 21]	56
CNC(=O)[C@@H]1CN(Cc2cnc(Oc3ccc(C)cc3)nc2)CCO1 [Example 28]	83
CNC(=O)[C@@H]1CN(Cc2cnc(Oc3ccc(Cl)cc3)nc2)CCO1 [Example 25]	88
CNC(=O)[C@@H]1CN(Cc2cnc(Oc3ccc(F)cc3F)nc2)CCO1 [Example 23]	65

Same assay, conditions: MDCK-MDR1, pH 7.4, Papp (b-a) divided by Papp (a-b), read-out: efflux ratio PEBA/PEAB

Compound	efflux ratio
CNC(=O)[C@@H]1CN(Cc2cnc(Oc3ccc(F)cc3)nc2)CCO1 [Example 32]	0.5
CNC(=O)[C@@H]1CN(Cc2cnc(Oc3ccccc3F)nc2)CCO1 [Example 27]	0.7
CNC(=O)[C@@H]1CN(Cc2cnc(Oc3ccc(C)cc3C)nc2)CCO1 [Example 22]	0.7
CNC(=O)[C@@H]1CN(Cc2cnc(Oc3ccccc3Cl)nc2)CCO1 [Example 26]	0.6
CNC(=O)[C@@H]1CN(Cc2cnc(Oc3ccc(C)cc3F)nc2)CCO1 [Example 20]	0.7
CNC(=O)[C@@H]1CN(Cc2cnc(Oc3ccc(Cl)cc3F)nc2)CCO1 [Example 24]	0.8
CNC(=O)[C@@H]1CN(Cc2cnc(Oc3ccc(F)cc3C)nc2)CCO1 [Example 21]	1
CNC(=O)[C@@H]1CN(Cc2cnc(Oc3ccc(C)cc3)nc2)CCO1 [Example 28]	0.5
CNC(=O)[C@@H]1CN(Cc2cnc(Oc3ccc(Cl)cc3)nc2)CCO1 [Example 25]	0.5
CNC(=O)[C@@H]1CN(Cc2cnc(Oc3ccc(F)cc3F)nc2)CCO1 [Example 23]	0.9

Test system: not listed separately
Experiment: Metabolic stability in pooled human liver microsomes
Type: in vitro ADME
Details: pH 7.6, 1 μM compound, 1 mg/mL microsomal protein, 37° C., NADPH, read-out: Half-life - t½ human liver microsomes
From the text: Stability in human liver microsomes refers to the susceptibility of compounds to biotransformation in the context of selecting and/or designing drugs with favorable pharmacokinetic properties. The primary site of metabolism for many drugs is the liver. Human liver microsomes contain the cytochrome P450s (CYPs), and thus represent a model system for studying drug metabolism in vitro. Enhanced stability in human liver microsomes is associated with several advantages, including increased bioavailability and adequate half-life, which can enable lower and less frequent dosing of patients. Thus, enhanced stability in human liver microsomes is a favorable characteristic for compounds that are to be used for drugs.
The metabolic degradation of the test compound was assayed at 37° C. with pooled human liver microsomes. The final incubation volume of 60 μl per time point contains TRIS buffer pH 7.6 at room temperature (0.1 M), magnesium chloride (5 mM aqueous solution), microsomal protein (1 mg/mL for human) and the test compound at a final concentration of 1 μM. Following a short preincubation period at 37° C., the reactions were initiated by addition of betanicotinamide adenine dinucleotide phosphate, reduced form (NADPH, 1 mM), and terminated by transferring an aliquot into acetonitril after different time points. After centrifugation (10000 g, 5 min), an aliquot of the supernatant was assayed by HPLC-MS/MS as described above for the MDCK assay P-gp for the amount of parent compound. The half-life was determined by the slope of the semi-logarithmic plot of the concentration-time profile.

Compound	half-life at 1 µM [h]
CNC(=O)[C@@H]1CN(Cc2cnc(Oc3ccc(F)cc3)nc2)CCO1 [Example 32]	> 2.17
CNC(=O)[C@@H]1CN(Cc2cnc(Oc3ccccc3F)nc2)CCO1 [Example 27]	> 2.17
CNC(=O)[C@@H]1CN(Cc2cnc(Oc3ccc(C)cc3C)nc2)CCO1 [Example 22]	> 2.17
CNC(=O)[C@@H]1CN(Cc2cnc(Oc3ccccc3Cl)nc2)CCO1 [Example 26]	> 2.17
CNC(=O)[C@@H]1CN(Cc2cnc(Oc3ccc(C)cc3F)nc2)CCO1 [Example 20]	> 2.17
CNC(=O)[C@@H]1CN(Cc2cnc(Oc3ccc(Cl)cc3F)nc2)CCO1 [Example 24]	> 2.17
CNC(=O)[C@@H]1CN(Cc2cnc(Oc3ccc(F)cc3C)nc2)CCO1 [Example 21]	> 2.17
CNC(=O)[C@@H]1CN(Cc2cnc(Oc3ccc(C)cc3)nc2)CCO1 [Example 28]	> 2.17
CNC(=O)[C@@H]1CN(Cc2cnc(Oc3ccc(Cl)cc3)nc2)CCO1 [Example 25]	> 2.17
CNC(=O)[C@@H]1CN(Cc2cnc(Oc3ccc(F)cc3F)nc2)CCO1 [Example 23]	> 2.17
